# Values quoted from earlier work as cited in patent publication US20060228403A1, “Nutritional supplements for cardiovascular health” (priority 2005, published 2006).
# What was measured:
# [1] = test system: cytochrome P450 omega-hydroxylase; details: hamster; for magnitude of O2-induced constriction of arterioles in the cremaster and retractor muscles: 17-octadecynoic acid 10 micromolar superfusion, DDMS intravenous infusion
# forearm microcirculation = details: after supplementation 4 g/d for 6 weeks
# [2] = test system: platelet aggregation in cerebral arterioles; details: mice
# thromboxane B2 = details: mice; fish oil daily by gavage six weeks; indomethacin 0.5 mg/kg ip acute
smiles,measurement,setting,value
C#CCCCCCCCCCCCCCCCC(=O)O [17-octadecynoic acid],arteriolar constriction in response to elevated PO2 in the epithelial portion of the cheek pouch,[1],unaffected
same,magnitude of O2-induced constriction of arterioles in the cremaster and retractor muscles,[1],significant reduction
"CC/C=C\C/C=C\C/C=C\C/C=C\C/C=C\C/C=C\CCC(=O)O [DHA, docosahexaenoic acid]",plasma phospholipid DHA composition,forearm microcirculation,increased
"CC/C=C\C/C=C\C/C=C\C/C=C\C/C=C\CCCC(=O)O [EPA, eicosapentaenoic acid]",plasma phospholipid EPA levels,forearm microcirculation,increased significantly
"COc1ccc2c(c1)c(CC(=O)O)c(C)n2C(=O)c1ccc(Cl)cc1 [Indomethacin, indomethacin]",effect on arteriolar platelet aggregation,[2],significantly slows
same,increase of time to first arteriolar aggregate,[2]; 0.5 mg/kg ip acute,35%
same,decrease of serum thromboxane B2,thromboxane B2,80%
"CS(=O)(=O)NC(=O)CCCCCCCCCC=C(Br)Br [N-methylsulfonyl-12,12-dibromododec-11-enamide]",arteriolar constriction in response to elevated PO2 in the epithelial portion of the cheek pouch,[1],unaffected
same,magnitude of O2-induced constriction of arterioles in the cremaster and retractor muscles,[1],significant reduction
